What all share (type): cell-based
Data set [1] relates to VERO cells. Put plainly: Cytotoxicity on Vero cell monolayers (MNTD50). Conditions: maximum 50% non-toxic dose, 5 days. The method, then:
The cytotoxicity was evaluated on Vero cell monolayers (ICN-Flow). They were inoculated in 6-well plates each containing 9×10^4 cells and incubated in DMEM with 5% FCS for 24 h at 37° C. in a 5% CO2 incubator. After 24 h of culture, the medium was changed and a new medium containing decreasing doses of the substances under study was added.
After 5 days, the cells were trypsinized and counted in a Neubauer chamber under a light microscope. All the tests were done in triplicate. The maximum 50% non-toxic dose (MNTD50) was defined as the drug concentration that decreased cell multiplication less than 50% with respect to the control.

For data set [2], the system named is M. tuberculosis 103471. Briefly: Antimycobacterial activity, MIC in Middlebrook 7H9 broth (NCCLS procedure). Conditions: for MIC: Mycobacterium tuberculosis, 103471, read-out: M. tuberculosis 103471 MIC (μg/mL).
Data set [3] concerns M. smegmatis 103599. Put plainly: Antimycobacterial activity toward atypical mycobacteria, MIC in broth. The settings on record: Mycolicibacterium smegmatis, 103599; read-out: MIC (μg/mL) M. smegmatis 103599.
In data set [4] the test system is M. marinum 6423. Described as above. Conditions: Mycobacterium marinum, 6423; read-out: MIC (μg/mL) M. marinum 6423.
Data set [5] concerns M. avium 103317. The description is as above. The settings on record: Mycobacterium avium, 103317; read-out: MIC (μg/mL) M. avium 103317.
For data set [6], the system named is intracellular M. tuberculosis. Briefly: Inhibitory activity on intramacrophagic mycobacteria in U937 cells differentiated into macrophages. Conditions: Mycobacterium tuberculosis, read-out: MIC (μg/mL) Inhibition of intramacrophagic mycobacteria. As for the experimental part:
Inhibitory Activity of 6e and 7c on Intramacrophagic Mycobacteria.
The bactericidal activity of such compounds on intracellular mycobacteria was studied on U937 cells (INC-FLOW), a human hystiocytic cell line. Cells were differentiated into macrophages with 20 ng/mL of phorbol myristate acetate (PMA, Sigma) and grown in RPMI 1640 medium with 10% fetal calf serum.

Structures are written as SMILES. Values after ≈ are worked out from the molar mass of the structure shown.

As for `CO[C@H]1/C=C/O[C@@]2(C)Oc3c(C)c(O)c4c(O)c(c(/C=N/N5CCN(C)CC5)c(O)c4c3C2=O)NC(=O)/C(C)=C\C=C\[C@H](C)[C@H](O)[C@@H](C)[C@@H](O)[C@@H](C)[C@H](OC(C)=O)[C@@H]1C` [Rifampin, reference compound], the “MNTD50 (μg/mL) VERO cells” value in data set [1] worked out at 64 µg/mL. The MIC in data set [2] is 0.3 µg/mL (≈ 0.365 µM); in data set [3], 32 µg/mL (≈ 38.9 µM); in data set [4], 0.6 µg/mL (≈ 0.729 µM); in data set [5], 0.3 µg/mL (≈ 0.365 µM); in data set [6], 3 µg/mL (≈ 3.65 µM). In addition, in data set [2] (extracellular M. tuberculosis 103471), the “M. tuberculosis 103471 MIC” value is 0.3 µg/mL.
As to `Cc1ccc(-c2cc(CN3CCSCC3)c(C)n2-c2ccc(F)cc2)cc1` [Compound 6e, N-(p-fluorophenyl)-2-methyl-3-thiomorpholinomethyl-5-(p-methylphenyl)pyrrole], the “MNTD50 (μg/mL) VERO cells” value in data set [1] stood at 64 µg/mL. Further, the MIC in data set [2] came to 0.4 µg/mL (≈ 1.05 µM); in data set [3] it was 16 µg/mL (≈ 42 µM); in data set [4], 8 µg/mL (≈ 21 µM); in data set [5], 8 µg/mL (≈ 21 µM); in data set [6], 3 µg/mL (≈ 7.88 µM).
As to `Cc1c(CN2CCSCC2)cc(-c2ccc(F)cc2)n1-c1ccccc1F` [Compound 7c, N-(o-fluorophenyl)-2-methyl-3-thiomorpholinomethyl-5-(p-fluorophenyl)pyrrole], the “MNTD50 (μg/mL) VERO cells” value in data set [1] was found to be 8 µg/mL. Moreover, the MIC is 0.5 µg/mL (≈ 1.3 µM) in data set [2]; 8 µg/mL (≈ 20.8 µM) in data set [3]; greater than 16 µg/mL in data set [4]; 8 µg/mL (≈ 20.8 µM) in data set [5]; 3 µg/mL (≈ 7.8 µM) in data set [6].

(Values after patent US8012970B2, “Derivatives of 1-{[1,5-bis(4-chlorophenyl)-2-methyl-1H-pyrrol-3-yl]methyl}-4-methylpiperazine, synthesis process and uses thereof” (priority 2005, dated 2011).)
